Drawing on patent US10562902B2, “IRAK4 inhibitor and use thereof” (BEIJING HANMI PHARMACEUTICAL CO., LTD., priority 2015, dated 2020), this text covers IC50 for 18 compounds.

Assay [1] relates to LPS-induced TNF-α secretion in THP-1 cells. As to the kind of experiment: LPS-induced TNF-α secretion assay in THP-1 cells. The class given is cell-based. The note with it: Homo sapiens, 24 hours, TNF-α ELISA. On the procedure:
The compound of Example 133 and the compound of Example 134 of the invention were tested in LPS-induced TNF-α secretion assay in THP-1 cells. Human THP-1 cells (purchased from ATCC, Cat. No.: TIB-202) were cultured in RPMI-1640 medium (purchased from Gibco, Cat. No.: 22440) containing 10% fetal bovine serum (purchased from Gibco, Cat. No.: 10099-141) and 0.05 mM of 2-mercaptoethanol (purchased from Gibco, Cat. No.: 21985). The THP-1 cells in logarithmic growth phase were seeded in a 96-well plate at 2×10^5 cells/well/100 μL. The test samples were diluted with RMPI-1640 medium to 4 folds of the final concentration (5-fold dilutions starting from 10 μM, setting 6 drug concentrations, and testing in replicate wells at each concentration). The diluted test samples were added to the test wells seeded with cells at 50 μL/well, and RMPI-1640 medium (50 μL) was separately added to positive control and negative control wells. The 96-well plate was placed in the incubator at 37° C., 5% CO2 and pre-incubated for 2 hours. […] After incubation in the incubator at 37° C., 5% CO2 for 24 hours, the cell culture supernatant was taken and determined for the content of TNF-α in the supernatant using a human TNF-α ELISA kit (purchased from DKW, Cat. No.: 12-1720-096).
(ELISA stands for enzyme-linked immunosorbent assay.)

Another assay addresses IRAK4 kinase (Homo sapiens (Human), UniProt Q9NWZ3). As to the kind of experiment: IRAK4 kinase activity inhibition assay. The conditions noted are these: ADP-Glo kinase assay, 10 μM ATP, MBP substrate. The format is biochemical. The method in brief:
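IRAK4 ([…]) in 40 mM Tris-HCl pH 7.5, 20 mM MgCl2, 0.1 mg/mL BSA and 1 mM DTT was preincubated 10 min at 25 °C with six 10-fold dilutions of compound from 10 μM. ATP (10 μM) and MBP substrate (0.1 μg/μL) were then added and reacted 60 min at 25 °C. ADP formed was read by ADP-Glo luminescence to give IC50.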

For the next assay, the system named is TMD-8 cells. As to the kind of experiment: TMD-8 cell growth inhibition assay. The class given is cell-based. The conditions noted are these: Homo sapiens, TMD8, 96 hours, CCK-8. As for the experimental part:
The compound of Example 64 and the compound of Example 74 of the invention were tested in TMD-8 cell growth inhibition assay. TMD-8 cells (available from Korea Hanmi Research Center) were cultured in RMPI-1640 medium (purchased from Gibco, Cat. No.: 22440) containing 10% fetal bovine serum (purchased from Gibco, Cat. No.: 10099-141). The TMD-8 cells in logarithmic growth phase were seeded in a 96-well plate at 20,000 cells/well/100 μL, and RMPI-1640 medium (100 μL) was added into blank control wells. The test samples were diluted with RMPI-1640 medium to 2 folds of the final concentration (10-fold dilutions starting from 10 μM, setting 6 drug concentrations, and testing in replicate wells at each concentration). The diluted test samples were added to test wells seeded with cells at 100 μL/well, and RMPI-1640 medium (100 μL) was separately added to the positive control and the blank control wells. The 96-well plate was placed in the incubator and reacted at 37° C., 5% CO2 for 96 hours. After the reaction was completed, the 96-well plate was taken from the incubator and to each well was added CCK-8 (100 μL) (purchased from DOJINDO, Cat. No.: CK04-11). Then the 96-well plate was put back to the incubator and incubated for another 2 hours.

Molecules are shown by their SMILES. pIC50: −log10 of the molar value. Bounds are passed on as bounds.

IRAK4 kinase, sequence (Q9NWZ3 whole entry): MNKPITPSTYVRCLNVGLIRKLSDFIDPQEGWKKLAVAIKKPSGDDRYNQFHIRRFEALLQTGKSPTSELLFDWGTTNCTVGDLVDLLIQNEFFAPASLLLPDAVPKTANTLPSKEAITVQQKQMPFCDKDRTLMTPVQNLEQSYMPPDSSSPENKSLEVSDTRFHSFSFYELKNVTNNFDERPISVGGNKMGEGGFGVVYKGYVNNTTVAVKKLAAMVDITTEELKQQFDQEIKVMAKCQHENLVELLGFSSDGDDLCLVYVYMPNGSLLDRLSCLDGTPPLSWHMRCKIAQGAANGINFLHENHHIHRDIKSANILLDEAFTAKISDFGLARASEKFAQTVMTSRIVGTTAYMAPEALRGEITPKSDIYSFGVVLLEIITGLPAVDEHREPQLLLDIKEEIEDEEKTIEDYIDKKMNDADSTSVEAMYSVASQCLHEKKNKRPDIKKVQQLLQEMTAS

The pIC50 is the IC50 on a negative log10 scale, so that one unit is a factor of ten. `CCNC(=O)c1csc(Nc2nc(O[C@H]3CCOC3)c3c(ccn3-c3cnn(C)c3)n2)c1` [Example 134]: the pIC50 in assay [1] was 6.51; against IRAK4 kinase, no less than 7.00.

In the case of `Cc1cc(Nc2nc(O[C@H]3CCOC3)c3c(ccn3-c3cnn(C)c3)n2)sn1` [Example 64], the results for the negative-log IC50 (pIC50) at IRAK4 kinase and in the assay on TMD-8 cells were no less than 7.00 and 6.74, respectively.

For the compound `CNC(=O)c1csc(Nc2nc(O[C@H]3CCOC3)c3c(ccn3-c3cnn(C)c3)n2)c1` [Example 133], the pIC50 in assay [1] is 6.79; against IRAK4 kinase it was no less than 7.00.

In the case of `Cc1cc(Nc2nc(OC3CCOCC3)c3c(ccn3-c3cnn(C)c3)n2)sn1` [Example 74], the pIC50 was no less than 7.00 on IRAK4 kinase and 6.32 in the assay with TMD-8 cells.

At IRAK4 kinase, `Cc1cc(Nc2nc(NC(C)C)c3c(ccn3-c3cccc(C(=O)O)c3)n2)sn1` [Example 35] gave a negative-log IC50 (pIC50) of 5.00 to 6.00.

`CCNC(=O)c1csc(Nc2nc(OC3CCOCC3)c3c(ccn3-c3cnn(C)c3)n2)c1` [Example 168] showed a pIC50 against IRAK4 kinase of no less than 7.00.

In turn, `CNC(=O)CCCNc1nc(Nc2cc(C)ns2)nc2ccn(-c3cnn(C)c3)c12` [Example 7] showed a negative-log IC50 (pIC50) against IRAK4 kinase of 6.00 to 7.00.

`Cc1cc(Nc2nc(NC3CCN(C)CC3)c3c(ccn3-c3cnn(C)c3)n2)sn1` [Example 30] had a pIC50 against IRAK4 kinase of 6.00 to 7.00.

`CC(=O)NCCCNc1nc(Nc2cc(C)ns2)nc2ccn(-c3cnn(C)c3)c12` [Example 9]: the pIC50 against IRAK4 kinase is 6.00 to 7.00.

Regarding `CNC(=O)c1cc(Nc2nc(NC3CCOCC3)c3c(ccn3-c3cnn(C)c3)n2)cs1` [Example 51], the negative-log IC50 (pIC50) on IRAK4 kinase is no less than 7.00.

As to `Cc1cc(Nc2nc(OC3CCOCC3)c3c(ccn3-c3cccnc3)n2)sn1` [Example 98], the pIC50 against IRAK4 kinase is 6.00 to 7.00.

The compound `Cc1cc(Nc2nc(O[C@H]3CCOC3)c3c(ccn3-c3cnn(C)c3)n2)[nH]n1` [Example 84] gave a pIC50 against IRAK4 kinase of 6.00 to 7.00.

Regarding `Cc1cc(Nc2nc(N[C@H]3CC[C@H](N4CCCCC4)CC3)c3c(ccn3-c3cnn(C)c3)n2)sn1` [Example 28], the pIC50 against IRAK4 kinase was 6.00 to 7.00.

In turn, `Cn1cc(-n2ccc3nc(Nc4cnoc4)nc(O[C@H]4CCOC4)c32)cn1` [Example 115] showed a pIC50 against IRAK4 kinase of 6.00 to 7.00.

As for `Cc1cc(Nc2nc(NCCO)c3c(ccn3-c3cnn(C)c3)n2)sn1` [Example 3], the negative logarithm of the IC50 (pIC50) on IRAK4 kinase was 6.00 to 7.00.

The compound `Cc1cc(Nc2nc(NC3CCCC3)c3c(ccn3-c3cnn(C)c3)n2)sn1` [Example 17] had a negative-log IC50 (pIC50) against IRAK4 kinase of 6.00 to 7.00.

For `Cc1cc(Nc2nc(OC3CCOCC3)c3c(ccn3-c3cccc4c3OCCO4)n2)sn1` [Example 104], the pIC50 against IRAK4 kinase was 6.00 to 7.00.

Turning to `Cc1cc(Nc2nc(OC3CCCC3)c3c(ccn3-c3cnn(C)c3)n2)sn1` [Example 63], the pIC50 against IRAK4 kinase is 6.00 to 7.00.
